Reference: PubChem BioAssay (NCI)
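1) Cells in 96-well plates. 2) Compound, 48 h, 5 concentrations. 3) Linear interpolation between surrounding doses. 4) Unreached endpoint = highest concentration. Abbreviation: GI50, concentration required for 50% inhibition of growth. TGI: total growth inhibition.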

Experiments:
Test in all cases: inhibition of tumour cell growth, NCI panel, 48 h
786-0 renal = tested on: 786-0 renal
ACHN renal = tested on: ACHN renal
DU-145 prostate = tested on: DU-145 prostate
HL-60(TB) leukemia = tested on: HL-60(TB) leukemia
NCI-H23 lung = tested on: NCI-H23 lung
OVCAR-3 ovarian = tested on: OVCAR-3 ovarian
OVCAR-5 ovarian = tested on: OVCAR-5 ovarian
UACC-257 melanoma = tested on: UACC-257 melanoma
BT-549 breast = tested on: BT-549 breast
MDA-MB-231 breast = tested on: MDA-MB-231 breast

Compound | GI50 (786-0 renal) [µM] | TGI (786-0 renal) [µM] | GI50 (ACHN renal) [µM] | TGI (ACHN renal) [µM] | GI50 (DU-145 prostate) [µM] | TGI (DU-145 prostate) [µM] | GI50 (HL-60(TB) leukemia) [µM] | TGI (HL-60(TB) leukemia) [µM] | GI50 (NCI-H23 lung) [µM] | TGI (NCI-H23 lung) [µM] | GI50 (OVCAR-3 ovarian) [µM] | TGI (OVCAR-3 ovarian) [µM] | GI50 (OVCAR-5 ovarian) [µM] | TGI (OVCAR-5 ovarian) [µM] | GI50 (UACC-257 melanoma) [µM] | TGI (UACC-257 melanoma) [µM] | TGI (BT-549 breast) [µM] | TGI (MDA-MB-231 breast) [µM] | GI50 (BT-549 breast) [µM] | GI50 (MDA-MB-231 breast) [µM]
CCOC(=O)c1sc2nc3sc(N=Nc4ccc(Cl)cc4)c(O)n3c(=S)c2c1C | 32.4 | > 100 | 16.5 | 54.3 | 31.2 | > 100 | > 100 | > 100 | 14.2 | 42.4 | 36.7 | > 100 | 36.9 | > 100 | 23.4 | 60.6 | – | – | – | –
NS(=O)(=O)c1cc2c(cc1Cl)NC(Cc1ccccc1)NS2(=O)=O (configuration not stated) | – | > 100 | – | > 100 | – | > 100 | – | – | – | > 100 | – | > 100 | – | > 100 | – | > 100 | > 100 | > 100 | – | –
COc1ccc(-c2ccc(/C=N/n3c(COc4ccccc4Cl)nn(CN4CCN(C)CC4)c3=S)o2)c([N+](=O)[O-])c1 | 17.4 | 39.3 | 23.1 | 50.1 | – | – | 32.8 | 65.7 | 16.3 | 31 | – | – | 21.6 | 46.6 | – | – | 43 | 37.5 | 17.2 | 14.6
CN(C)c1ccc(C(=C2C=CC(=[N+](C)C)C=C2)c2ccc(N(C)C)cc2)cc1 (tested in a mixture with another compound) | 0.104 | 1.02 | 0.233 | 1.48 | 0.0543 | 1.28 | 0.125 | 0.677 | – | – | 0.133 | 0.949 | 0.559 | 1.77 | 0.211 | 1.3 | 0.84 | 1.03 | 0.188 | 0.205
CC(=O)N1CC(Nc2ccc(OC(F)(F)F)cc2)=CC1=O | 3.27 | > 100 | 8.27 | > 100 | 3.76 | > 100 | 0.842 | > 100 | 4.93 | > 100 | 1.19 | 4.03 | > 100 | > 100 | > 100 | > 100 | > 100 | – | 4.16 | –
CC(=O)C1CC=C(C)CC1 (configuration not stated) | – | > 100 | – | > 100 | – | – | – | > 100 | – | > 100 | – | > 100 | – | > 100 | – | > 100 | – | – | – | –
Cc1ccc(NC(=O)NC(=O)c2ccc([N+](=O)[O-])cc2[N+](=O)[O-])cc1Oc1ncc(Cl)cn1 | – | 13.8 | – | > 100 | – | > 100 | – | 0.584 | – | 9.39 | – | 13.6 | – | – | – | 16.9 | 32.7 | 24.2 | – | –
CC/C=C1\N=C(c2ccc(Cl)cc2)OC1=O | – | > 100 | – | > 100 | – | – | – | > 100 | – | > 100 | – | > 100 | – | > 100 | – | > 100 | – | – | – | –
Cc1cccc(Oc2nccc(-c3c(-c4ccc(F)cc4)ncn3C3CCNCC3)n2)c1C | 8.22 | > 18 | 6.11 | > 25 | > 11.4 | > 16.3 | 9.38 | > 22.4 | – | – | 14.3 | > 25 | 8.62 | > 25 | – | – | > 19.6 | 13.9 | 10.9 | 5.42
CCn1cc(/C=C/C(C)c2cn(CC)c(=O)[nH]c2=O)c(=O)[nH]c1=O (configuration not stated) | – | > 100 | – | > 100 | – | – | – | > 100 | – | > 100 | – | > 100 | – | > 100 | – | > 100 | – | – | – | –
COc1ccc2oc3c4c2c1CCC4CCC3=O (configuration not stated) | – | > 100 | – | > 100 | – | – | – | > 100 | – | > 100 | – | > 100 | – | > 100 | – | 31.2 | – | – | – | –
COc1cc(C(=O)/C=C/c2cc(C(=O)c3cc(OC)c(OC)c(OC)c3)ccc2OC)ccc1N | 1.54 | 4.08 | 1.08 | 4.49 | 1.03 | 4.59 | 1.48 | 6.82 | 1.42 | 4.1 | 0.448 | 4.17 | – | – | 1.32 | 3.14 | – | > 100 | – | 0.713
CC1=CC(=O)CCC2(C)C1CC[C@@H]2OC=O (some centres not stated) | – | > 100 | – | > 100 | – | – | – | > 100 | – | > 100 | – | > 100 | – | > 100 | – | > 100 | – | – | – | –
O=C(CC1(O)C(=O)Nc2ccccc21)c1ccccc1Cl (configuration not stated) | – | > 100 | – | > 100 | – | – | – | > 100 | – | > 100 | – | > 100 | – | > 100 | – | > 100 | – | – | – | –
CC(C)c1ccccc1NC(=O)C(=O)Cc1nc2ccccc2s1 | – | > 100 | – | > 100 | – | – | – | > 100 | – | > 100 | – | > 100 | – | – | – | > 100 | – | – | – | –
CCOC(=O)N1CCc2cc(OC)c(OC)c3c2C1CC3=O (configuration not stated) | – | > 100 | – | > 100 | – | – | – | > 100 | – | – | – | – | – | > 100 | – | > 100 | – | – | – | –
CCN(CC)CCCNc1cccc2c(SCc3ccccc3)ccnc12 | 1.56 | 2.99 | 1.81 | 3.27 | 1.86 | 3.49 | – | – | 1.9 | 5.09 | 1.75 | 3.43 | 2 | 3.76 | 2.09 | 3.85 | 3.35 | 2.48 | 1.62 | 1.01
O=C(CO)CC(=O)C(=O)Nc1nc([N+](=O)[O-])cs1 | – | > 100 | – | > 100 | – | – | – | > 100 | – | > 100 | – | > 100 | – | > 100 | – | > 100 | – | – | – | –
N#CC(C(=O)/C(=N\Nc1nc(=S)[nH]n1N)C(C#N)c1ccc(Cl)cc1)c1ccc(Cl)cc1 (configuration not stated) | – | > 100 | – | > 100 | – | – | – | – | – | > 100 | – | > 100 | – | > 100 | – | > 100 | – | – | – | –
CC(C)(C)NN=C1C(C)(C)C(=NNC(C)(C)C)C1(C)C | – | > 100 | – | > 100 | – | – | – | > 100 | – | > 100 | – | > 100 | – | > 100 | – | > 100 | – | – | – | –
